The target in this experiment is ERK2 (Rattus norvegicus, UniProt P63086). In words: competitive fluorescence anisotropy displacement of FITC-X-Lig-D. The class given is binding.
Sequence of ERK2 (P63086 2-358): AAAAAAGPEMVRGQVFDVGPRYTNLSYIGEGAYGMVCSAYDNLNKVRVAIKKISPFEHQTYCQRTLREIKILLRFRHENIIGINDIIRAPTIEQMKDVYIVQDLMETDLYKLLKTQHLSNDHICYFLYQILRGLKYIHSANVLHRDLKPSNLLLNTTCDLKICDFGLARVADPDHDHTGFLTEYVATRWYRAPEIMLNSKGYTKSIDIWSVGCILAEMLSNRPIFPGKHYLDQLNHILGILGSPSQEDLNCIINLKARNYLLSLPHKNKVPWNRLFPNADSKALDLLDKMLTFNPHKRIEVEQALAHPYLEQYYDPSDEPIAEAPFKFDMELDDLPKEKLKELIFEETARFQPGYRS

One may read the Ki as a measure of affinity in units of concentration, obtained from inhibition or displacement. Read a high Ki as lower affinity. For the compound `CC1(C)C2CCC(CN=C(N)CSS(=O)(=O)O)C1C2` (stereo not shown) [NSC 194308], the affinity, expressed as Ki, was 730 ± 260 nM.
